# B1: noxin: noxin tagged with the FLAG epitope at its N-terminus, expressed from plasmid pFLAG-noxin (mouse, SEQ ID NO: 2) (protein)
# chain: MNKRRKFLFASVLAVQNSNFIYPSCQRCFSKIILESKRFTCPKCGSSGDTGSTNYRYKLSLKVAESSKLFFITVFGSCLDTFFGLTATGLHRYLEDSIKNLETLDSGRTQSLLTTAVEKCFVGQSFVFGVTNFGDVCGHDSDSSNFQQPCCKHRGEVRTLVASQIILPSPHVKGFTVIAYLHPLLHKKPHCGSQEHSSQSLTSDDSDSDLNNIQGSGNTSWFSESSVGEDFFRYWEPSLELTSSDSQVTSSDDFPASKQIMASGTPNQNRHCISVSEVTSSKNCHDSLQSLWSLHSCMDKNNTTGKLGEELGLPSPVCNSCHESRLSDSHFFPSQMQEPFEEHNLECYSKAEKNDYSQYDIACYQHHEVNTTPILQQRSSAFSLSSLKPEETANPSQNSDSLIWDDLPLSESLNKFLAVVESEVAVTEIDAKNRKQGMDKSIDKCHKNYSRLSLTPWRNTRALNTSCFSLRSSQAMMKDSGKEALFSNCKSNSSPHIQKESKADKTEAAVSIAGSRSDISEDFLPDTCSSALFTSSKDREAFITQKRTSGVLQQRNEISCRPSTSISDCSDLRSRYFTGCGQKLHSGTKGKLAIQNCSKKYSDASDLHKLENKHRWPKKEDDNFTICRKLTYPLETLCSSPESINTSKEMPYRPSNNNLTPSSSGDHEGSYNASAGLFDYIAKDKDIGTEITKIPQDNLLPLEVPCTENYPINENRGQPSQKPSLQSISPSRYSRPRSQSDSECDFEESQDFVPCSQSTPVAGFHQRIHGLNGASKILPSIYSNHNANYKNRKNSPLTGQYQATSACSKNVKAFRQKPESPFVSSLTQANVFNHCPAAESLGNDVDEWVPPTTKKVFISDILGFRVMGLRKCLDLHYSPDPKELPRKKLIKVTHKTNI
# modifications: left off: small tags and cut ends
# How the values were obtained:
# noxin mRNA = test: Northern blot time course of noxin mRNA induction; format: cell-based, mouse
# Experimental: Total RNA was extracted from different adult mouse tissues and analyzed for noxin mRNA by Northern hybridization. Northern blot analysis was carried out as follows. Total RNA (10 μg) was separated by denaturing formaldehyde-agarose gel electrophoresis and transferred onto a nylon membrane (Hybond-N^+, Amersham). The membrane was pre-hybridized with hybridization buffer (0.05 M sodium phosphate buffer, 5×SSC, 4×Denhardt's solution, 1% SDS, 50% formamide, 0.1 mg/ml salmon sperm DNA, and 0.2 mg/ml yeast tRNA) for 6 h at 42° C. and hybridized with the same buffer containing 100,000 cpm/ml [α-^32P] dCTP-labeled noxin cDNA probe amplified by PCR from pFLAG-noxin. Following hybridization for 20 h at 42° C., the membrane was washed twice with 2×SSC for 5 min at room temperature, twice with 0.2×SSC for 5 min at 65° C. and twice with 1×SSC with 3% glycerol for 5 min at room temperature. The membrane was exposed for 3 days at −70° C. using X-OMAT X-ray film (Kodak).
# Noxin was identified as an NO-inducible gene and the time course of its induction by the NO donor SNAP was determined. Noxin mRNA levels as determined by Northern blot started to increase 2 h after the addition of SNAP and reached maximal levels 8 h after the addition (FIG. 6A). The pattern of noxin induction by SNAP was similar to that of a p53-dependent gene mdm2. Results for β-actin are shown as a control.
# [1] = tested on: noxin protein in NIH3T3 cells; test: Western blot of endogenous noxin protein after stress stimuli; format: cell-based, mouse; conditions: anti-noxin Western blot
# Experimental: Western blot analysis. Cells or tissues were homogenized in the lysis buffer (10 mM Tris-HCl pH 7.5, 1 mM EDTA, 400 mM NaCl, 0.5% NP40, 5 mM NaF, 0.5 mM sodium orthovanadate, 10% glycerol, 1 mM dithiothreitol, 1 mM PMSF, 1 μg/ml aprotinin, 1 μg/ml leupeptin and 1 μg/ml pepstatin) for 20 min on ice. Following centrifugation, the soluble fraction was collected and protein concentration was determined using the BCA assay kit (Pierce). 50 μg of total protein was separated on an 8% SDS-PAGE gel and transferred to Immobilon-P membrane (Millipore Corporation) by semi-dry blotting. The membranes were incubated with anti-noxin antibody (see above) (1:1,000) followed by anti-mouse IgG or anti-rabbit IgG antibody conjugated to horseradish peroxidase (HRP) (1:10,000, Amersham). The HRP signal was detected using a chemi-luminescence detection kit (SuperSignal Femto Dura Extended Duration Substrate, Pierce) and Hyperfilm X-ray film (Amersham Biosciences).
# Furthermore, in the SNAP-, cytokines-, γ-irradiation, and adriamycin-treated cells an additional band of 129 kD was evident.
# [2] = tested on: MEFs from wild type and noxin-/- mice; test: BrdU/PI flow cytometry of MEFs released from serum arrest, with SNAP; format: cell-based, mouse
# Experimental: Since noxin can induce cell cycle arrest and, in addition, respond to various types of stress stimuli, including NO, the growth characteristics of MEFs isolated from noxin^−/− animals or their wild type (noxin^+/+) littermates were compared. MEFs from wild type and noxin^−/− mice were arrested with low serum (0.1%) culture medium for 24 h and released by adding 10% serum. Cells were either left untreated or exposed to SNAP. At the time of release, BrdU was added to the culture medium and cells were further incubated for 4, 16, or 22 h (FIG. 17, indicated). Cells were collected, stained with PI and analyzed by flow cytometry for BrdU-positive cells (FIG. 17, X-axis: PI, Y-axis: BrdU) and for cell cycle distributions (FIG. 18, X-axis: PI and Y-axis: number of cells) (Fraction P3=G1, Fraction P4=S, Fraction P5=G2/M and Fraction P6=Sub-G1 populations). […]
# The growth of noxin^−/− MEFs under normal conditions (FIG. 17g-i) and after addition of SNAP (FIGS. 17j-l) were similar to that of wild type MEFs (FIG. 17a-c and FIG. 17d-f). However, the fraction of sub-G1 cells was higher in noxin-deficient (noxin^−/−) cells (Fraction P6) at each time point analyzed than in wild type (noxin^+/+) MEFs (13.8, 16.3, and 11.5 vs. 9.7, 5.1, and 3.5%, respectively, FIG. 18 fraction P6).
# [3] = tested on: noxin protein in NIH3T3 cells; test: Subcellular localization of endogenous noxin by immunofluorescence; format: cell-based, mouse; conditions: antibody against C-terminal region peptide
# NIH3T3 cells [4] = test: BrdU incorporation (DNA synthesis) in transfected versus untransfected NIH3T3 cells; format: cell-based, mouse; conditions: BrdU labeling for 24 h
# Experimental: In addition, constructs coding for cyan fluorescent protein with a nuclear localization signal (CFP-nuc), yellow fluorescent protein fused to actin (YFP-actin), or vector construct alone were used as controls. Cells were then labeled with BrdU for 24 h and analyzed cells in situ by immunocytochemistry for BrdU and noxin (or other listed proteins) (FIG. 11A-C). In the figures, signals from anti-FLAG antibodies are seen in red; anti-BrdU antibodies are green; Hoechst 33342 (blue) was used for nuclear counter-staining. […] Recombinant protein was detected on a Western blot using the anti-FLAG antibody.
# NIH3T3 cells [5] = test: Cell cycle distribution of pFLAG-noxin transfected cells by flow cytometry; format: cell-based, mouse; conditions: anti-FLAG staining, DNA content
# Experimental: After transfection with pFLAG-noxin or pcDNA3 vector, cell division was arrested with three different treatments (nocodazole, aphidicolin, or low concentration of serum). Cells were stained with anti-FLAG antibody and FITC-conjugated anti-mouse IgG antibody after permeabilization. Cell cycle distributions of untransfected and transfected cells were analyzed by DAPI staining and flow cytometry.
# [6] = tested on: MEFs from p53-deficient mice; test: DNA synthesis in p53-deficient MEFs expressing noxin; format: cell-based, mouse
# Experimental: Noxin action was also analyzed in p53-deficient MEFs.
# p53 = p53 levels in transfected cells by immunocytochemistry and flow cytometry; format: cell-based
# Experimental: The cells were labeled with […] (BrdU) (10 μM) and incubating for the time periods indicated. The cells were collected from plates by trypsin digestion were suspended in saline and fixed with 70% ethanol. After washing with PBS containing 0.05% BSA, 1×10^6 cells were incubated with FITC-conjugated anti-BrdU antibody (Pharmingen, 1:500) for 1 hr, suspended in PBS-BSA with 5 μg/ml propidium iodide (PI) and 20 μg/ml RNase A, and incubated further for 30 min at room temperature. For the bivariate cell cycle analysis, cells were analyzed using LSRII flow cytometer ([…]). […] Cells were analyzed for PE, FITC, and GFP fluorescence by flow cytometry.
# Cells were transfected with pFLAG-noxin- or GFP-expressing plasmids and the levels of p53 were determined using immunocytochemistry and flow cytometry. […] 13a-c: which were stained with anti-FLAG and anti-p53 primary antibodies and ALEXA Fluor 596- and 488-conjugated secondary antibodies, respectively. […] 14a-d: Cells transfected with pFLAG-noxin (upper panels) and pEGFP (taken as control; lower panels) that were stained with anti-FLAG and anti-p53 primary antibodies, and PE- and FITC-conjugated secondary antibodies. Then Noxin-FLAG- or EGFP-negative (left panels) and positive (right panels) cells were analyzed for the amount of p53 protein.
Molecule,time after addition at which noxin mRNA levels started to increase (noxin mRNA),time after addition at which noxin mRNA reached maximal levels (noxin mRNA),additional noxin band of 129 kD [1],levels of the 125 kD noxin polypeptide [1],"decrease of the fraction of dividing cells ([2]; MEFs released from low serum arrest, BrdU)",effect on sub-G1 fraction (Fraction P6) ([2]; noxin+/+ or noxin-/- MEFs),localization of endogenous noxin protein after exposure [3],"fraction of BrdU-positive cells in transfected cells, % of the value for the untransfected cells (NIH3T3 cells [4])",cell cycle phase of cells expressing the transfected gene (NIH3T3 cells [5]),suppression of DNA synthesis [6],p53 levels in cells that received the gene (p53)
"CC(=O)NC(C(=O)O)C(C)(C)SN=O (racemic) [SNAP, S-nitroso-N-acetyl-D,L-penicillamine]",2 h,8 h,evident,specifically increased,95.5%,did not noticeably affect,predominantly nuclear localization,,,,
B1,,,,,,,,24%,arrested in G1 or early S phase,effective,increased

# Source: patent US20090162848A1, “Noxin, a novel stress-induced gene involved in cell cycle and apoptosis” (COLD SPRING HARBOR LABORATORY, priority 2007, published 2009)
